From ChEMBL document CHEMBL1201862, “PubChem BioAssay data set” (2004)
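Where inhibition never reached the appropriate level, the endpoint shown equals the highest concentration tested. Otherwise, values were interpolated linearly from a five-concentration, 48-hour dose response in 96-well plates. GI50 marks 50% less growth.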 Activity calls are given as the source filed them. No stated cut-off is given here; in the data, active = GI50 up to about 1.1 µM and inactive = higher.

Tests used:
Assay in all cases: growth of human tumour cells (NCI), 48 h
NCI-H23 = system: NCI-H23
OVCAR-3 = system: OVCAR-3
CAKI-1 = system: CAKI-1
SF-295 = system: SF-295
DMS-114 = system: DMS-114
Hs-578T = system: Hs-578T
DU-145 = system: DU-145
T47D = system: T47D
OVCAR-5 = system: OVCAR-5
LOX IMVI = system: LOX IMVI
MDA-MB-231 = system: MDA-MB-231
NCI-H460 = system: NCI-H460
OVCAR-8 = system: OVCAR-8
M14 = system: M14
SF-268 = system: SF-268
HT-29 = system: HT-29
K562 = system: K562
BT-549 = system: BT-549
SK-MEL-2 = system: SK-MEL-2
NCI/ADR-RES = system: NCI/ADR-RES

| SMILES | GI50 (NCI-H23) | GI50 (OVCAR-3) | GI50 (CAKI-1) | GI50 (SF-295) | GI50 (DMS-114) | GI50 (Hs-578T) | GI50 (DU-145) | GI50 (T47D) | GI50 (OVCAR-5) | GI50 (LOX IMVI) | GI50 (MDA-MB-231) | GI50 (NCI-H460) | GI50 (OVCAR-8) | GI50 (M14) | GI50 (SF-268) | GI50 (HT-29) | GI50 (K562) | GI50 (BT-549) | GI50 (SK-MEL-2) | GI50 (NCI/ADR-RES) |
| --- | --- | --- | --- | --- | --- | --- | --- | --- | --- | --- | --- | --- | --- | --- | --- | --- | --- | --- | --- | --- |
| COC(=O)N/N=C(/c1nc2ccc([N+](=O)[O-])cc2nc1O)C(O)c1ccc(OC)c(OC)c1 (centres undefined) | > 76.7 µM (inactive) | > 54.7 µM (inactive) | > 100 µM (inactive) | 98.6 µM (inactive) | 24.7 µM (inactive) | 59 µM (inactive) | > 100 µM (inactive) | 80 µM (inactive) | > 100 µM (inactive) | 28.5 µM (inactive) | 64.3 µM (inactive) | 59 µM (inactive) | > 100 µM (inactive) | > 100 µM (inactive) | > 81.1 µM (inactive) | > 72.9 µM (inactive) | 55.2 µM (inactive) | > 100 µM (inactive) | > 100 µM (inactive) | 92 µM (inactive) |
| CC[C@@H](C)[C@H]([C@H](CC(=O)N1CCC[C@@H]1[C@@H](OC)[C@H](C)C(=O)N[C@H](Cc1ccccc1)c1nccs1)OC)N(C)C(=O)[C@H](NC(=O)[C@@H](C(C)C)N(C)C)C(C)C | 0.000224 µM (active) | 3.11e-05 µM (active) | – | 0.000146 µM (active) | 0.000288 µM (active) | < 0.01 µM (active) | < 0.01 µM (active) | > 77.6 µM (inactive) | 0.0005 µM (active) | 0.000161 µM (active) | < 0.01 µM (active) | 5.9e-05 µM (active) | 0.000286 µM (active) | 0.000165 µM (active) | 0.00039 µM (active) | 2.24e-05 µM (active) | 6.93e-05 µM (active) | < 0.01 µM (active) | 0.000125 µM (active) | < 0.01 µM (active) |
| CC1CN1C(=O)NCCCCCCNC(=O)N1CC1C (centres undefined) | 27.3 µM (inactive) | > 100 µM (inactive) | 48.4 µM (inactive) | 54.3 µM (inactive) | > 36.2 µM (inactive) | > 100 µM (inactive) | 22.2 µM (inactive) | > 73.1 µM (inactive) | > 100 µM (inactive) | 34.3 µM (inactive) | > 100 µM (inactive) | 2.61 µM (inactive) | 69 µM (inactive) | 68.2 µM (inactive) | 29.8 µM (inactive) | > 100 µM (inactive) | > 97.5 µM (inactive) | > 100 µM (inactive) | > 100 µM (inactive) | 78.7 µM (inactive) |
| CCCCCCCCCCCCCCCCCCOCC(COP(=O)([O-])OCC[N+](C)(C)C)OC (centres undefined) [EDELFOSINE] | 41.6 µM (inactive) | 34.3 µM (inactive) | 13.1 µM (inactive) | 9.66 µM (inactive) | 13.4 µM (inactive) | > 100 µM (inactive) | > 100 µM (inactive) | > 100 µM (inactive) | 15.9 µM (inactive) | 15.4 µM (inactive) | 59.7 µM (inactive) | 7.05 µM (inactive) | 32.1 µM (inactive) | 32.9 µM (inactive) | 17.2 µM (inactive) | 7.28 µM (inactive) | 44.3 µM (inactive) | 48.8 µM (inactive) | 31.3 µM (inactive) | 42.3 µM (inactive) |
